The assay deals with T1, Prostaglandin G/H synthase 2 (Homo sapiens, UniProt P35354).
T1 sequence (P35354 whole entry): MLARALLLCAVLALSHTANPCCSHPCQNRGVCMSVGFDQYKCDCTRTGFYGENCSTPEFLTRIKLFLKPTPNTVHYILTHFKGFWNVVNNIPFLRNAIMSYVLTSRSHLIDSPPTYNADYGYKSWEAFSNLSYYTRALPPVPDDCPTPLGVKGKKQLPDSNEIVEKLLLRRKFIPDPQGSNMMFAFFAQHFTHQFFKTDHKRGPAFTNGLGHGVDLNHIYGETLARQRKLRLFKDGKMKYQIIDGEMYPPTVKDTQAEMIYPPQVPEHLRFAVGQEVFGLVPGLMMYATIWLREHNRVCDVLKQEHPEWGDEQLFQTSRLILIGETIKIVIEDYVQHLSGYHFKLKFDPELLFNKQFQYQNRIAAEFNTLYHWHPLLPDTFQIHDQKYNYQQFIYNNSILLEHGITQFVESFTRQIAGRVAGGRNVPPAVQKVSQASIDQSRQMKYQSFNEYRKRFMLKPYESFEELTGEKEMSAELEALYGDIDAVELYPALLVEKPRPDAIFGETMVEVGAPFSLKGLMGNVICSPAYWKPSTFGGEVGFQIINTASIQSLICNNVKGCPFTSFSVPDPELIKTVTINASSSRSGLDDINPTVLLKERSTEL
The assay is described as follows: Inhibition of COX2 in Homo sapiens (human) whole blood.

SMILES strings stand for the structures.

One may read the IC50 as the concentration that inhibits the measured activity by half. A high value points to lower potency.

Take `CS(=O)(=O)c1ccc(-c2nc(NCCCc3cccs3)cc(C(F)(F)F)n2)cc1`: the IC50 worked out at 1210 nM.
In the case of `CS(=O)(=O)c1ccc(-c2nc(NC3CC=CCC3)cc(C(F)(F)F)n2)cc1` (centres undefined) it was 32.9 nM; in that of `Cn1cccc1CCCNc1cc(C(F)(F)F)nc(-c2ccc(S(C)(=O)=O)cc2)n1`, 3980 nM.
For `NS(=O)(=O)c1ccc(-c2nc(NCc3ccccc3)cc(C(F)(F)F)n2)cc1`, half-maximal inhibition (IC50) was put at 3330 nM.

The values above are taken from ChEMBL document CHEMBL3046334 (Med Chem Res, 2012).
